Results from ChEMBL document CHEMBL4152382, “Discovery of Tarantula Venom-Derived NaV1.7-Inhibitory JzTx-V Peptide 5-Br-Trp24 Analogue AM-6120 with Systemic Block of Histamine-Induced Pruritis” (J Med Chem, 2018).

The molecules below were run against Sodium channel protein type 9 subunit alpha (Homo sapiens, UniProt Q15858) (assay: Inhibition of human Nav1.7 expressed in HEK293 cells at holding potential of -125 mV […] by patchxpress-based electrophysiology assay).
Assay type: cell-based

Sequence of Sodium channel protein type 9 subunit alpha (Q15858 whole entry): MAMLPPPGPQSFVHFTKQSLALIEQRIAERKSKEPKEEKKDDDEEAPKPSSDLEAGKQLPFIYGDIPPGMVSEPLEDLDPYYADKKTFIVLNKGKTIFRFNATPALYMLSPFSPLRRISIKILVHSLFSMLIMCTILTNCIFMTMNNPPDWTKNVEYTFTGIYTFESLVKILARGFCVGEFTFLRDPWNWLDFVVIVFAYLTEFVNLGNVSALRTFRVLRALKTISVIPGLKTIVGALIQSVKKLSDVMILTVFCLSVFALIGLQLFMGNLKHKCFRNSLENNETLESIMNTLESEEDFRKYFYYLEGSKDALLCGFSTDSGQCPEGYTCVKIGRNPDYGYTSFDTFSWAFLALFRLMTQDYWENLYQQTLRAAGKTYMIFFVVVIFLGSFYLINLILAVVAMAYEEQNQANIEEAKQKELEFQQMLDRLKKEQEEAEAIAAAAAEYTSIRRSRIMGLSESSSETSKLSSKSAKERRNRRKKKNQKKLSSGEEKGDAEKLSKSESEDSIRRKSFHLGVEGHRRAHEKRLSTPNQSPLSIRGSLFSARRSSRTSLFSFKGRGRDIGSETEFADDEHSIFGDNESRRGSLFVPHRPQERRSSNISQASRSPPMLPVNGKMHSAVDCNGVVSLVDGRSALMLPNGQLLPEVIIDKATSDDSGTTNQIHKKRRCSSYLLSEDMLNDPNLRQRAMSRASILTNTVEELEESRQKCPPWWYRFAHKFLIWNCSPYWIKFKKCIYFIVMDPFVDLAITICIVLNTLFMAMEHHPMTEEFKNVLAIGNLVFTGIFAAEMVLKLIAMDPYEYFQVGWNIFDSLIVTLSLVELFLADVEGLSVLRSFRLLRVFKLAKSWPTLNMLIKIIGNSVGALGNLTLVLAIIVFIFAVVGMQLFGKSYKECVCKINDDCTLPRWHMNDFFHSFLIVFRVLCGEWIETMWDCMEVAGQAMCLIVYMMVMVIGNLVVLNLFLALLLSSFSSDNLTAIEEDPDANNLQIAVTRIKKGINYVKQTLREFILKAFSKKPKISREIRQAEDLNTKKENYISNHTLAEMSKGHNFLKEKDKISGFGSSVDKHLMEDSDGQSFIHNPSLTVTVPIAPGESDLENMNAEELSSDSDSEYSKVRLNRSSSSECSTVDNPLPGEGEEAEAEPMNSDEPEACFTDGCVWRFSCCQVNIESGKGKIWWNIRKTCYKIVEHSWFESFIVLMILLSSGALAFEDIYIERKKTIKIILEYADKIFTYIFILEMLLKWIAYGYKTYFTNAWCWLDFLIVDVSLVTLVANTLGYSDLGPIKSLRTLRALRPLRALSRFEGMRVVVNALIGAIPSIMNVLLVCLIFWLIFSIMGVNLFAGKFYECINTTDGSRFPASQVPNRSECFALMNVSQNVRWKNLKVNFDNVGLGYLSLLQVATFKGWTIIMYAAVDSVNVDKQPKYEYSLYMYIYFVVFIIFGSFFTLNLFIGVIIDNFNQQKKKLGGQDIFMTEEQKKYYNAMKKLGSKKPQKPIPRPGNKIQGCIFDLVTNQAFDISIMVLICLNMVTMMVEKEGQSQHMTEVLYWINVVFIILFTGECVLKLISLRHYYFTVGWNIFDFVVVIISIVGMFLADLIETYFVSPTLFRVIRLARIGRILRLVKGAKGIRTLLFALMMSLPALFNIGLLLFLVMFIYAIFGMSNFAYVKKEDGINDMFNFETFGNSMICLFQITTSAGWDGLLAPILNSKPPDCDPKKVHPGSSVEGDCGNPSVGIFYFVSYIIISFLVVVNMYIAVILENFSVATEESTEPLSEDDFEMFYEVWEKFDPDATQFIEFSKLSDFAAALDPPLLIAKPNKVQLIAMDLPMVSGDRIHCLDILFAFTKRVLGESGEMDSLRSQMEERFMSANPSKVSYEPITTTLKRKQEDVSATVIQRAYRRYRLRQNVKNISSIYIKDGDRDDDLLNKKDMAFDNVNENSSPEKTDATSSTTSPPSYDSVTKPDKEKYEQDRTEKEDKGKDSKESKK

**Q.** For C#CC[C@H](N)C(=O)N[C@@H](Cc1ccc(O)cc1)C(=O)N[C@H]1CSSC[C@@H]2NC(=O)[C@@H]3CSSC[C@@H](C(=O)N[C@@H](CCCNC(=N)N)C(=O)N[C@@H](CCCCN)C(=O)N[C@@H](CCC(=O)O)C(=O)N[C@H](C(N)=O)[C@@H](C)CC)NC(=O)[C@H](Cc4ccccc4)NC(=O)[C@H](CC(C)C)NC(=O)[C@H](CCCCN)NC(=O)[C@H](CSSC[C@H](NC(=O)[C@H]([C@@H](C)O)NC(=O)[C@H](Cc4c[nH]c5ccccc45)NC(=O)[C@H](CCCC)NC(=O)[C@H](Cc4c[nH]c5ccccc45)NC(=O)[C@H](CCCCN)NC(=O)[C@H](CCC(N)=O)NC1=O)C(=O)N[C@@H](CC(=O)O)C(=O)N[C@@H](CO)C(=O)N[C@@H](CCCCN)C(=O)N[C@@H](CCCNC(=N)N)C(=O)N[C@@H](C)C(=O)N3)NC(=O)[C@H](CCCNC(=N)N)NC(=O)[C@H](CC(C)C)NC(=O)CNC(=O)[C@H](CCC(=O)O)NC2=O, which IC50 is on record?
**A.** 15 nM

**Q.** For C#CC[C@H](N)C(=O)N[C@@H](Cc1ccc(O)cc1)C(=O)N[C@H]1CSSC[C@@H]2NC(=O)[C@@H]3CSSC[C@@H](C(=O)N[C@@H](CCCNC(=N)N)C(=O)N[C@@H](CCCCN)C(=O)N[C@@H](CCC(=O)O)C(=O)N[C@H](C(N)=O)[C@@H](C)CC)NC(=O)[C@H](Cc4c[nH]c5ccc(Br)cc45)NC(=O)[C@H](CC(C)C)NC(=O)[C@H](CCCCN)NC(=O)[C@H](CSSC[C@H](NC(=O)[C@H]([C@@H](C)O)NC(=O)[C@H](Cc4c[nH]c5ccccc45)NC(=O)[C@H](CCCC)NC(=O)[C@H](CCc4ccccc4)NC(=O)[C@H](CCCCN)NC(=O)[C@H](CCC(N)=O)NC1=O)C(=O)N[C@@H](CC(=O)O)C(=O)N[C@@H](CO)C(=O)N[C@@H](CCCCN)C(=O)N[C@@H](CCCNC(=N)N)C(=O)N[C@@H](C)C(=O)N3)NC(=O)[C@H](CCCNC(=N)N)NC(=O)[C@H](CC(C)C)NC(=O)CNC(=O)[C@H](CCC(=O)O)NC2=O, which IC50 is on record?
**A.** 1 nM

**Q.** With C#CC[C@H](N)C(=O)N[C@@H](Cc1ccc(O)cc1)C(=O)N[C@H]1CSSC[C@@H]2NC(=O)[C@@H]3CSSC[C@@H](C(=O)N[C@@H](CCCNC(=N)N)C(=O)N[C@@H](CCCCN)C(=O)N[C@@H](CCC(=O)O)C(=O)N[C@H](C(N)=O)[C@@H](C)CC)NC(=O)[C@H](Cc4c[nH]c5ccc(Br)cc45)NC(=O)[C@H](C4CCCCC4)NC(=O)[C@H](CCCCN)NC(=O)[C@H](CSSC[C@H](NC(=O)[C@H]([C@@H](C)O)NC(=O)[C@H](Cc4c[nH]c5ccccc45)NC(=O)[C@H](CCCC)NC(=O)[C@H](Cc4c[nH]c5ccccc45)NC(=O)[C@H](CCCCN)NC(=O)[C@H](CCC(N)=O)NC1=O)C(=O)N[C@@H](CC(=O)O)C(=O)N[C@@H](CO)C(=O)N[C@@H](CCCCN)C(=O)N[C@@H](CCCNC(=N)N)C(=O)N[C@@H](C)C(=O)N3)NC(=O)[C@H](CCCNC(=N)N)NC(=O)[C@H](CC(C)C)NC(=O)CNC(=O)[C@H](CCC(=O)O)NC2=O as the molecule, how does the IC50 read?
**A.** 19.6 nM

**Q.** With C#CC[C@H](N)C(=O)N[C@@H](Cc1ccc(O)cc1)C(=O)N[C@H]1CSSC[C@@H]2NC(=O)[C@@H]3CSSC[C@@H](C(=O)N[C@@H](CCCNC(=N)N)C(=O)N[C@@H](CCCCN)C(=O)N[C@@H](CCC(=O)O)C(=O)N[C@H](C(N)=O)[C@@H](C)CC)NC(=O)[C@H](Cc4c[nH]c5ccccc45)NC(=O)[C@H](CC(C)C)NC(=O)[C@H](CCCCN)NC(=O)[C@H](CSSC[C@H](NC(=O)[C@H]([C@@H](C)O)NC(=O)[C@H](CCc4ccccc4)NC(=O)[C@H](CCCC)NC(=O)[C@H](Cc4c[nH]c5ccccc45)NC(=O)[C@H](CCCCN)NC(=O)[C@H](CCC(N)=O)NC1=O)C(=O)N[C@@H](CC(=O)O)C(=O)N[C@@H](CO)C(=O)N[C@@H](CCCCN)C(=O)N[C@@H](CCCNC(=N)N)C(=O)N[C@@H](C)C(=O)N3)NC(=O)[C@H](CCCNC(=N)N)NC(=O)[C@H](CC(C)C)NC(=O)CNC(=O)[C@H](CCC(=O)O)NC2=O as the molecule, how does the IC50 read?
**A.** 6.8 nM

**Q.** With C#CC[C@H](N)C(=O)N[C@@H](Cc1ccc(O)cc1)C(=O)N[C@H]1CSSC[C@@H]2NC(=O)[C@@H]3CSSC[C@@H](C(=O)N[C@@H](CCCNC(=N)N)C(=O)N[C@@H](CCCCN)C(=O)N[C@@H](CCC(=O)O)C(=O)N[C@H](C(N)=O)[C@@H](C)CC)NC(=O)[C@H](Cc4c[nH]c5ccccc45)NC(=O)[C@H](CCCC)NC(=O)[C@H](CCCCN)NC(=O)[C@H](CSSC[C@H](NC(=O)[C@H]([C@@H](C)O)NC(=O)[C@H](Cc4c[nH]c5ccccc45)NC(=O)[C@H](CCCC)NC(=O)[C@H](Cc4c[nH]c5ccccc45)NC(=O)[C@H](CCCCN)NC(=O)[C@H](CCC(N)=O)NC1=O)C(=O)N[C@@H](CC(=O)O)C(=O)N[C@@H](CO)C(=O)N[C@@H](CCCCN)C(=O)N[C@@H](CCCNC(=N)N)C(=O)N[C@@H](C)C(=O)N3)NC(=O)[C@H](CCCNC(=N)N)NC(=O)[C@H](CC(C)C)NC(=O)CNC(=O)[C@H](CCC(=O)O)NC2=O as the molecule, how does the IC50 read?
**A.** 1.7 nM

**Q.** For C#CC[C@H](N)C(=O)N[C@@H](Cc1ccc(O)cc1)C(=O)N[C@H]1CSSC[C@@H]2NC(=O)[C@@H]3CSSC[C@@H](C(=O)N[C@@H](CCCNC(=N)N)C(=O)N[C@@H](CCCCN)C(=O)N[C@@H](CCC(=O)O)C(=O)N[C@H](C(N)=O)[C@@H](C)CC)NC(=O)[C@H](Cc4c[nH]c5ccccc45)NC(=O)[C@H](C4CCCCC4)NC(=O)[C@H](CCCCN)NC(=O)[C@H](CSSC[C@H](NC(=O)[C@H]([C@@H](C)O)NC(=O)[C@H](Cc4c[nH]c5ccccc45)NC(=O)[C@H](CCCC)NC(=O)[C@H](Cc4c[nH]c5ccccc45)NC(=O)[C@H](CCCCN)NC(=O)[C@H](CCC(N)=O)NC1=O)C(=O)N[C@@H](CC(=O)O)C(=O)N[C@@H](CO)C(=O)N[C@@H](CCCCN)C(=O)N[C@@H](CCCNC(=N)N)C(=O)N[C@@H](C)C(=O)N3)NC(=O)[C@H](CCCNC(=N)N)NC(=O)[C@H](CC(C)C)NC(=O)CNC(=O)[C@H](CCC(=O)O)NC2=O, which IC50 is on record?
**A.** 0.5 nM

**Q.** Which IC50 does the source give for C#CC[C@H](NC(=O)[C@@H](N)CCC(=O)O)C(=O)N[C@H]1CSSC[C@@H]2NC(=O)[C@@H]3CSSC[C@@H](C(=O)N[C@@H](CCCNC(=N)N)C(=O)N[C@@H](CCCCN)C(=O)N[C@@H](CCC(=O)O)C(=O)N[C@H](C(N)=O)[C@@H](C)CC)NC(=O)[C@H](Cc4c[nH]c5ccc(Br)cc45)NC(=O)[C@H](CC(C)C)NC(=O)[C@H](CCCCN)NC(=O)[C@H](CSSC[C@H](NC(=O)[C@H]([C@@H](C)O)NC(=O)[C@H](Cc4c[nH]c5ccccc45)NC(=O)[C@H](CCCC)NC(=O)[C@H](Cc4c[nH]c5ccccc45)NC(=O)[C@H](CCCCN)NC(=O)[C@H](CCC(N)=O)NC1=O)C(=O)N[C@@H](CC(=O)O)C(=O)N[C@@H](CO)C(=O)N[C@@H](CCCCN)C(=O)N[C@@H](CCCNC(=N)N)C(=O)N[C@@H](C)C(=O)N3)NC(=O)[C@H](CCCNC(=N)N)NC(=O)[C@H](CC(C)C)NC(=O)CNC(=O)[C@H](CCC(=O)O)NC2=O here?
**A.** 0.3 nM
